Measured values taken from paper PMC3865070 (Neuropharmacology, 2013).
Read-outs that look alike come from different tables or passages of the source. Values belong to the compound of their own block, whether it stands above or below them.

Tests used:
Format in all cases: cell-based
[1] = molecular target: wild-type GluN1/N3B receptors (Rattus norvegicus, UniProt P35439+Q8VHN2)
[2] = molecular target: GluK2 (Rattus norvegicus, UniProt P42260); test: Two-electrode voltage-clamp recordings, Xenopus oocytes expressing GluK2
[3] = molecular target: GluN1(T518L)/N3A (Rattus norvegicus, UniProt P35439+Q9R1M7, T518L); test: Two-electrode voltage-clamp recordings, Xenopus oocytes expressing GluN1; settings: for Hill coefficient (nH): inhibition
[4] = molecular target: GluA1 (Rattus norvegicus, UniProt P19490); test: Two-electrode voltage-clamp recordings, Xenopus oocytes expressing GluA1
[5] = molecular target: GluN1/N2A (Rattus norvegicus, UniProt P35439); test: Two-electrode voltage-clamp recordings, Xenopus oocytes expressing GluN1/N2A; settings: co-applied with 100 μM glutamate and 0.5 μM glycine
[6] = molecular target: GluN1/N2C (Rattus norvegicus, UniProt P35439); test: Two-electrode voltage-clamp recordings, Xenopus oocytes expressing GluN1/N2C; settings: co-applied with 100 μM glutamate and 0.5 μM glycine
[7] = molecular target: GluN1(F484A)/N3A (Rattus norvegicus, UniProt P35439+Q9R1M7, F484A); test: Two-electrode voltage-clamp recordings, Xenopus oocytes expressing GluN1; settings: for Hill coefficient (nH): inhibition
[8] = molecular target: GluN1(F484A/T518L)/N3B (Rattus norvegicus, UniProt Q8VHN2); test: as above; settings: for Hill coefficient (nH): inhibition
[9] = molecular target: GluN1/N2B (Rattus norvegicus, UniProt P35439); test: Two-electrode voltage-clamp recordings, Xenopus oocytes expressing GluN1/N2B; settings: co-applied with 100 μM glutamate and 0.5 μM glycine
[10] = molecular target: GluN1/N2D (Rattus norvegicus, UniProt P35439); test: Two-electrode voltage-clamp recordings, Xenopus oocytes expressing GluN1/N2D; settings: co-applied with 100 μM glutamate and 0.5 μM glycine
[11] = molecular target: GluN1(F484A/T518L)/N3A (Rattus norvegicus, UniProt Q9R1M7); test: Two-electrode voltage-clamp recordings, Xenopus oocytes expressing GluN1; settings: for voltage dependence of inhibition: current-voltage relationship, inhibition at −60 mV and +30 mV; for Hill coefficient (nH): inhibition
[12] = molecular target: GluN1/N2A (Rattus norvegicus, UniProt P35439+Q00959); test: Two-electrode voltage-clamp recordings, Xenopus oocytes expressing GluN1/N2A
[13] = molecular target: GluN1/N2C (Rattus norvegicus, UniProt P35439+Q00961); test: Two-electrode voltage-clamp recordings, Xenopus oocytes expressing GluN1/N2C
[14] = molecular target: GluN1/N2B (Rattus norvegicus, UniProt P35439+Q00960); test: Two-electrode voltage-clamp recordings, Xenopus oocytes expressing GluN1/N2B
[15] = molecular target: GluN1/N2D (Rattus norvegicus, UniProt P35439+Q62645); test: Two-electrode voltage-clamp recordings, Xenopus oocytes expressing GluN1/N2D
[16] = co-applied with 100 μM glycine, N.E., no significant effect at 300 μM
[17] = read-out: inhibition of current responses to 10 μM glycine
[18] = IC50, co-applied with 100 μM glutamate and 0.5 μM glycine
[19] = IC50, co-applied with 100 μM glycine, N.E., no significant effect at 300 μM

Sequence of GluN1(F484A)/N3A (Q9R1M7 24-1115 isoform Q9R1M7-2 limits assumed, stated change not applied, other chains not shown): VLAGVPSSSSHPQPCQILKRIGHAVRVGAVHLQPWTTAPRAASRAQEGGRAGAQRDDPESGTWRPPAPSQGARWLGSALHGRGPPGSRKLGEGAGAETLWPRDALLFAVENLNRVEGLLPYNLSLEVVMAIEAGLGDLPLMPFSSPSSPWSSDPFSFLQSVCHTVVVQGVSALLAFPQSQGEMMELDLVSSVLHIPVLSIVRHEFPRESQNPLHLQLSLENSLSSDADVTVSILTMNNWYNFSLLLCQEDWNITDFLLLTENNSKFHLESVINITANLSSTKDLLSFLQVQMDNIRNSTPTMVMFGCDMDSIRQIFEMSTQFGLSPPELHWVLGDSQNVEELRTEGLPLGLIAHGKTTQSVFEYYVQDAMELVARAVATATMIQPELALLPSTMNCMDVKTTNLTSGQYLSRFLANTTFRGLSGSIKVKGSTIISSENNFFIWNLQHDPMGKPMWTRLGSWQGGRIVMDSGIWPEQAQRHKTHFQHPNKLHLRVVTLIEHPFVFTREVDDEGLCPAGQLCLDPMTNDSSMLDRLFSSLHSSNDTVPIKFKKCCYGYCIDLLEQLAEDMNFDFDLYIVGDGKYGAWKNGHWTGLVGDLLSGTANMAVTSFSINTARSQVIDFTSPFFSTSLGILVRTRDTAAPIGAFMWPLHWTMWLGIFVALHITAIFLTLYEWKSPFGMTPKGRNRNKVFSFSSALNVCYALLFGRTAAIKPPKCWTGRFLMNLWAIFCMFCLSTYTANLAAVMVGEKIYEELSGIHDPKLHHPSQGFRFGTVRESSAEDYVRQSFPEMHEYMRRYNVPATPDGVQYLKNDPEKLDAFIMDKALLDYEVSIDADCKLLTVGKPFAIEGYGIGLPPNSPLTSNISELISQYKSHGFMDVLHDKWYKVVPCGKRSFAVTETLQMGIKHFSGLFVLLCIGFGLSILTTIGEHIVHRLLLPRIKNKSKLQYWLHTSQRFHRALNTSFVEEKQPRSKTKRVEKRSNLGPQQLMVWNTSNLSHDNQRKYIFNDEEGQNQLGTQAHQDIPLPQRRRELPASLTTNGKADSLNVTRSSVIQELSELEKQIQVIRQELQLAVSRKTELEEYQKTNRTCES
Sequence of GluN1(F484A/T518L)/N3A (Q9R1M7 24-1115 isoform Q9R1M7-2, other chains not shown): as the sequence (Q9R1M7 24-1115 isoform Q9R1M7-2 limits assumed, stated change not applied, other chains not shown) above
Sequence of GluN1(T518L)/N3A (Q9R1M7 24-1115 isoform Q9R1M7-2 limits assumed, stated change not applied, other chains not shown): as above
Sequence of GluN1(F484A/T518L)/N3B (Q8VHN2 25-1002, stated change not applied, other chains not shown): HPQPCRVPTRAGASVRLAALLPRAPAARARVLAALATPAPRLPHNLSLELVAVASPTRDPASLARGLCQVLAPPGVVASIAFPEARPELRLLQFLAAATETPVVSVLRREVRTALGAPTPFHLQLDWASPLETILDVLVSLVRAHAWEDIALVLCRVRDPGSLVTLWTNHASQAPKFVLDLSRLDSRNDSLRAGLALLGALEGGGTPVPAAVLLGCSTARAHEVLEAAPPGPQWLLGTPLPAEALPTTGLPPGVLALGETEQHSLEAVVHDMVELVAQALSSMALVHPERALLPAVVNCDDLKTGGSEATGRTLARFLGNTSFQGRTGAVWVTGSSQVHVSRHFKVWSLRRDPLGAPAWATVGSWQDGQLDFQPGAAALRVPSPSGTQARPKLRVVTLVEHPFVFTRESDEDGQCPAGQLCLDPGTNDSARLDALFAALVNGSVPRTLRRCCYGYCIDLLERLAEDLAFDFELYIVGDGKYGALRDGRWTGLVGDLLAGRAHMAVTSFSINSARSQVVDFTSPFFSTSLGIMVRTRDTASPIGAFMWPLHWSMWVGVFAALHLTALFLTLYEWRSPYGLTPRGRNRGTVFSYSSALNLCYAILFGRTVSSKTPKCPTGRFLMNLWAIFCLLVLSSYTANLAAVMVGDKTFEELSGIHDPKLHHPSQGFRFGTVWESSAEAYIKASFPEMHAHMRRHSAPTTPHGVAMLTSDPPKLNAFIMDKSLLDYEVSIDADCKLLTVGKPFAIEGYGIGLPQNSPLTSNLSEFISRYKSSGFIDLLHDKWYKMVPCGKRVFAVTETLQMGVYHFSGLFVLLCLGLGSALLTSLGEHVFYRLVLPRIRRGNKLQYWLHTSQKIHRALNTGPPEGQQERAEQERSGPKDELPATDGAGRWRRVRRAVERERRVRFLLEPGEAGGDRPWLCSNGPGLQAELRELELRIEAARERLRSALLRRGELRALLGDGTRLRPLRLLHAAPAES
Sequence of wild-type GluN1/N3B receptors (Q8VHN2 25-1002, other chains not shown): as the sequence (Q8VHN2 25-1002, stated change not applied, other chains not shown) above
Sequence of GluA1 (P19490 19-907): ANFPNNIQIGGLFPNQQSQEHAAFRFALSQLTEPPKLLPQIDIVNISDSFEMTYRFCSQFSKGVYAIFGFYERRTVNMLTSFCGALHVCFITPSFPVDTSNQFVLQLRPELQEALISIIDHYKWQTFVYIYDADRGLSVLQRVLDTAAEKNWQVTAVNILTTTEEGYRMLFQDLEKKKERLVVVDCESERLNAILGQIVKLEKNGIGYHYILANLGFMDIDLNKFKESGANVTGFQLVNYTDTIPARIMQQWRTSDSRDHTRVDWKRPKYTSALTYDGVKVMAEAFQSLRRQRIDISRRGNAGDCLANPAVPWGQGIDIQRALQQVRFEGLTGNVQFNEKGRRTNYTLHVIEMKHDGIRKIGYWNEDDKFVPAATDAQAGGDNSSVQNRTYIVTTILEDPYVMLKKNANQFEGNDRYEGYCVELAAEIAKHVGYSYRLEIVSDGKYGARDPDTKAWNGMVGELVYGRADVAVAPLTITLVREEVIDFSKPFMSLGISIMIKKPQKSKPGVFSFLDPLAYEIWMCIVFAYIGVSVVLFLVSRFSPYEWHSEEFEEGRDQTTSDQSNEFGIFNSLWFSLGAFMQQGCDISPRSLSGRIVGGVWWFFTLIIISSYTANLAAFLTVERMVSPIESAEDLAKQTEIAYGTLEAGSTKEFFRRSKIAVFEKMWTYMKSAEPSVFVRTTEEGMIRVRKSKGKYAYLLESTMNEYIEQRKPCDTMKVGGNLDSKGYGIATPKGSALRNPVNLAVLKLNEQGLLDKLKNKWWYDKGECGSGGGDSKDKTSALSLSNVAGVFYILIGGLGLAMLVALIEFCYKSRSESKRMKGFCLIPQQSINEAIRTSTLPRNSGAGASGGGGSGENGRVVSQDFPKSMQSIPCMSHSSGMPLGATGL
Sequence of GluK2 (P42260 32-908): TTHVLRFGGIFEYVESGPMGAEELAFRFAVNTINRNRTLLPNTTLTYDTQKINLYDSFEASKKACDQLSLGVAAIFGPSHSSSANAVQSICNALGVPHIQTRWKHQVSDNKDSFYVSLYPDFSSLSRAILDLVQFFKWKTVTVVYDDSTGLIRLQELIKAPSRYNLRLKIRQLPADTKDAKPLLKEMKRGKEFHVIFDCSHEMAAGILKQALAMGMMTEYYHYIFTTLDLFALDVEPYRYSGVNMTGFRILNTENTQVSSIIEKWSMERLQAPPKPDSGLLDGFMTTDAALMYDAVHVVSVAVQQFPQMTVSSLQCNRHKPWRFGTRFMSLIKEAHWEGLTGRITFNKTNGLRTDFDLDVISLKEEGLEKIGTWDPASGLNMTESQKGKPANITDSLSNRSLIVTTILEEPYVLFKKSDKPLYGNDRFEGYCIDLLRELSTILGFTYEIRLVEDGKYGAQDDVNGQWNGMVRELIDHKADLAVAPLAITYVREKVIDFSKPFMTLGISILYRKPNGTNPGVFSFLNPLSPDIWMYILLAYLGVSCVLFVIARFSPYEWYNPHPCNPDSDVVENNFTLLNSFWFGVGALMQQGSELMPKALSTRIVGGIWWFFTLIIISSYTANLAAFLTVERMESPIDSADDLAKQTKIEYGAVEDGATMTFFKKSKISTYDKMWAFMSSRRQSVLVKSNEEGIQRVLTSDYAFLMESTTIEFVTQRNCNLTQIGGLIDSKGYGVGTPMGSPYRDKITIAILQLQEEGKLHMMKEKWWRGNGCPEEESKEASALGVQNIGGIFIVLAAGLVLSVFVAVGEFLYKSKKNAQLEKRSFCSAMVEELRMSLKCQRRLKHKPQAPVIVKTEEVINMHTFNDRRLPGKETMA

Compound: O=C(O)c1cc(Nc2nc(-c3cccnc3)cs2)ccc1O [TK13]
- inhibition of current responses to 10 μM glycine ([1]; 100 μM compound): 55 ± 3.1%
- IC50 ([2]; co-applied with 30 μM glutamate, oocytes incubated 5 min in 10 μM concanavalin A): > 300 µM
- IC50 ([3]; co-applied with 50 μM glycine): 100 µM
- Maximal inhibition ([3]; co-applied with 50 μM glycine): 100%
- pIC50 ± S.E.M. ([3]; co-applied with 50 μM glycine): 4.0 ± 0.05
- Hill coefficient (nH) ([3]; co-applied with 50 μM glycine): −1.02
- IC50 ([4]; co-applied with 30 μM glutamate): > 300 µM
- IC50 [5]: > 300 µM
- IC50 [6]: > 300 µM
- IC50 ([7]; co-applied with 100 μM glycine): 93 µM
- Maximal inhibition ([7]; co-applied with 100 μM glycine): 100%
- pIC50 ± S.E.M. ([7]; co-applied with 100 μM glycine): 4.0 ± 0.03
- Hill coefficient (nH) ([7]; co-applied with 100 μM glycine): −1.04
- IC50 ([8]; co-applied with 100 μM glycine): 49 µM
- pIC50 ± S.E.M. ([8]; co-applied with 100 μM glycine): 4.3 ± 0.03
- Hill coefficient (nH) ([8]; co-applied with 100 μM glycine): −0.77
- IC50 [9]: > 300 µM
- IC50 [10]: > 300 µM
- pIC50 ± S.E.M. ([11]; co-applied with 100 μM glycine): 4.2 ± 0.06
- IC50 [11, 16]: 67 µM
- voltage dependence of inhibition [11]: voltage-independent
- Hill coefficient (nH) ([11]; co-applied with 100 μM glycine): −1.04

- inhibition at 30 µM [1, 17]: 70 ± 4%
- IC50 [3]: 9.8 µM
- Maximal inhibition ([3]; co-applied with 50 μM glycine): 100%
- Hill coefficient (nH) ([3]; co-applied with 50 μM glycine): −1.50
- Hill coefficient (nH) ([5]; inhibition): −1.39
- IC50 [12]: 270 µM
- Hill coefficient (nH) ([6]; inhibition): −1.77
- IC50 [13]: 120 µM
- IC50 [7]: 34 µM
- Maximal inhibition ([7]; co-applied with 100 μM glycine): 100%
- Hill coefficient (nH) ([7]; co-applied with 100 μM glycine): −1.16
- IC50 [8]: 7.4 µM
- Hill coefficient (nH) ([8]; co-applied with 100 μM glycine): −1.37
- IC50 [14]: > 300 µM
- Hill coefficient (nH) ([10]; inhibition): −1.83
- IC50 [15, 18]: 90 µM
- IC50 ([15]; pIC50 ± S.E.M., co-applied with 100 μM glutamate and 0.5 μM glycine): 79.4 µM
- IC50 [11, 19]: 14 µM
- voltage dependence of inhibition [11]: voltage-independent
- Hill coefficient (nH) ([11]; co-applied with 100 μM glycine): −1.44
- IC50 ([11]; pIC50 ± S.E.M., co-applied with 100 μM glycine): 15.8 µM
Compound: O=C(O)c1cc(C(=O)c2ccc(Cl)cc2Cl)c[nH]1 [TK30, 4-(2,4-dichlorobenzoyl)-1H-pyrrole-2-carboxylic acid]

- inhibition at 100 µM [1, 17]: 65 ± 4.3%
- IC50 [2]: > 300 µM
- IC50 [4]: > 300 µM
- IC50 [12]: > 300 µM
- Ki [12]: > 290 µM
- IC50 [13]: > 300 µM
- Ki [13]: > 260 µM
- IC50 [8]: 79 µM
- Ki [8]: 39 µM
- voltage dependence of inhibition ([8]; current-voltage relationship, inhibition at −60 mV and +30 mV): voltage-independent
- Hill coefficient (nH) ([8]; co-applied with 100 μM glycine): −1.79
- IC50 [14]: > 300 µM
- Ki [14]: > 260 µM
- Ki [15]: > 210 µM
- IC50 [15, 18]: > 300 µM
- IC50 [11, 19]: > 300 µM
- IC50 [11, 16]: N.E.
Compound: O=c1[nH]c2nonc2nc1O [TK80, 6-hydroxy-[1,2,5]oxadiazolo[3,4-b]pyrazin-5(4H)-one]
